Structures can show the parent of a compound that is named as a salt.
How the values were obtained:
[1] = molecular target: pan-HDAC; test: In vitro enzyme inhibition assay - HDAC (HDAC-Glo I/II), pan-HDAC; assay type: biochemical
Outline: (§1)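 The compound, serially diluted 5-fold in DMSO across 8 concentrations starting from a 1 mM stock, was made up as 4× working solutions in HDAC buffer. It was then tested in the HDAC-Glo I/II system, and luminescence was recorded. IC50 values came from variable-slope four-parameter curves of inhibition rate.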

[2] = test system: DU145 cells; test: In vitro cell inhibition assay - DU145 cell proliferation (CellTiter-Glo); assay type: cell-based
Experimental: 5. In Vitro Cell Inhibition Assay—DU145 Cell Proliferation
The inhibitory effect of the compounds on cell proliferation was assessed by detecting the number of viable cells using the CellTiter-Glo® reagent. DU145 cells in the logarithmic growth phase were collected and inoculated into transparent bottom 96-well plates at a density 1×10^3 cells per well with 100 μL medium, and incubated at 37° C., 5% CO2 overnight. The compounds were sequentially diluted in a 5-fold concentration gradient with DMSO to obtain 8 different concentrations. These were then diluted with RPMI-640 (containing 10% FBS) cell culture medium to obtain the compound working solution (2×), which was added to the cell supernatant at 100 μL per well. The incubation continued for 6 days at 37° C., 5% CO2. The plate was then removed and equilibrated at room temperature (25° C.) along with the CellTiter-Glo® mixing reagent for 10-30 minutes. After centrifugation, 120 μL of the culture medium was carefully aspirated from each well, and 60 μL of CellTiter-Glo® reagent was added. The cells were thoroughly mixed with the CellTiter-Glo® mixing reagent using a microplate shaker for 2 min. and then incubated at room temperature for 10 min. The 96-well plate was subsequently placed on a multifunctional microplate reader to record the Luminescence values (RLU).
(§2) The inhibition rate was calculated using the following formula: […]
(§3) Note: ‘Negative’ refers to the group without inhibitors; ‘Blank’ refers to the group without cells.
(§4) The IC50 value was determined by fitting the inhibition rate by GraphPad Prism software.

[3] = test system: NCI-H1417 cells; test: In vitro cell inhibition assay - H1417 cell proliferation (CellTiter-Glo); assay type: cell-based
Outline: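 Cells exposed to 8 compound concentrations (5-fold dilutions) in BEGM with 10% FBS for 7 days at 37° C., 5% CO2. Viable cells measured by CellTiter-Glo luminescence; inhibition versus no-inhibitor and no-cell controls, IC50 fitted.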

[4] = test system: NCI-H69 cells; test: In vitro cell inhibition assay - NCI-H69 cell proliferation (CellTiter-Glo); assay type: cell-based
Outline: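 Over 7 days at 37° C. and 5% CO2, cells grew in RPMI-640 supplemented with 20% FBS in the presence of eight 5-fold-spaced compound concentrations.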

[5] = molecular target: LSD1 (Homo sapiens (Human), UniProt O60341); test: In vitro enzyme inhibition assay - LSD1 (HTRF); assay type: biochemical
[6] = test system: NCI-H526 cells; test: In vitro cell inhibition assay - NCI-H526 cell proliferation (CellTiter-Glo); assay type: cell-based; details: Homo sapiens, NCI-H526, 120 h, H526 small cell lung cancer cell proliferation, 5 days
Experimental: 6. In Vitro Cell Inhibition Assay—NCI-H526 Cell Proliferation
The inhibitory effect of the compounds on cell proliferation was assessed by detecting the number of viable cells using CellTiter-Glo® reagent. NCI-H526 cells in the logarithmic growth phase were collected and inoculated into transparent bottom 96-well plates at a density 1×10^3 cells per well with 100 μL of medium, and incubated at 37° C., 5% CO2 overnight. The compounds were sequentially diluted in a 5-fold concentration gradient with DMSO to obtain 8 different concentrations. These were then diluted with RPMI-640 (containing 10% FBS) cell culture medium to obtain the compound working solution (2×), which was added to the cell supernatant at 100 μL per well. The incubation continued for 5 days at 37° C., 5% CO2. The plate was then removed and equilibrated at room temperature (25° C.) along with the CellTiter-Glo® mixing reagent for 10-30 minutes; 80 μL of the culture medium was carefully aspirated from each well, and 80 μL of CellTiter-Glo® reagent was added. The cells were thoroughly mixed with the CellTiter-Glo® mixing reagent using a microplate shaker for 2 min. and then incubated at room temperature for 10 min. The 96-well plate was subsequently placed on a multifunctional microplate reader to record the Luminescence values (RLU).
as §2, §3, §4

[7] = molecular target: HDAC8 (Homo sapiens (Human), UniProt Q9BY41); test: In vitro enzyme inhibition assay - HDAC (HDAC-Glo I/II), HDAC8; assay type: biochemical; details: read-out: HDAC IC50 (nM) HDAC 8
Sequence of HDAC8 (Q9BY41 whole entry): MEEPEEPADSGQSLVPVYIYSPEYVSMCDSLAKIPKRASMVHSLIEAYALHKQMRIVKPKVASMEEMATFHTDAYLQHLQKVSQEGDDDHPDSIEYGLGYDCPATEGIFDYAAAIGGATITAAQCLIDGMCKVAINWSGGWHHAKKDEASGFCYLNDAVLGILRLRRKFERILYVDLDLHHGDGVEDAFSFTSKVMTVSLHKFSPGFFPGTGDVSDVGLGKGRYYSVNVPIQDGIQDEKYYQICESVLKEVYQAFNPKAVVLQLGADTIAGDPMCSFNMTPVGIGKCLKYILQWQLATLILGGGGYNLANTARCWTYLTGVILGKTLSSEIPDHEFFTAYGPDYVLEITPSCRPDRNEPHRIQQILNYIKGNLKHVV
Outline: as §1

[8] = Homo sapiens, DU-145, Du145 prostate cancer cell proliferation
[9] = Homo sapiens, NCI-H1417, H1417 small cell lung cancer cell proliferation
[10] = Homo sapiens, NCI-H69, H69 small cell lung cancer cell proliferation

| Structure (SMILES) | IC50 [1] [nM] | IC50 [2, 8] [nM] | IC50 [3, 9] [nM] | IC50 [4, 10] [nM] | IC50 [5] [nM] | IC50 ([2]; Du145 prostate cancer cell proliferation) [nM] | IC50 ([3]; H1417 small cell lung cancer cell proliferation) [nM] | IC50 ([4]; H69 small cell lung cancer cell proliferation) [nM] | IC50 [6] [nM] | IC50 [7] [nM] |
| --- | --- | --- | --- | --- | --- | --- | --- | --- | --- | --- |
| N#Cc1ccc(-c2nc(N3CCC(N)CC3)cc(OCCCCCCC(=O)NO)c2-c2ccc(Cl)cc2)cc1F [Example 11, 7-((6-(4-Aminopiperidin-1-yl)-3-(4-chlorophenyl)-2-(4-cyano-3-fluorophenyl)pyridin-4-yl)oxy)-N-hydroxyheptanamide hydrochloride] | 116 | 2000 | > 1000 | 2360 |  |  |  |  |  |  |
| Cn1cc2cc(-c3c(OCCCCCCC(=O)NO)cc(N4CCC(N)CC4)nc3-c3ccc(C#N)c(F)c3)ccc2n1 [Example 14, 7-((6-(4-Aminopiperidin-1-yl)-2-(4-cyano-3-fluorophenyl)-3-(2-methyl-2H-indazol-5-yl)pyridin-4-yl)oxy)-N-hydroxyheptanamide formate] |  | 3210 | > 1000 | 2520 |  |  |  |  |  |  |
| COc1ccc(-c2cnc(N3CCC(NCc4ccc(C(=O)NO)cc4)CC3)c(C#N)c2-c2ccc(C#N)c(F)c2)cc1O [Example 41, 4-(((1-(3-Cyano-4-(4-cyano-3-fluorophenyl)-5-(3-hydroxy-4-methoxyphenyl)pyridin-2-yl)piperidin-4-yl)amino)methyl)-N-hydroxybenzamide hydrochloride] |  | 5060 | 1.29 | 1680 | 0.13 |  |  |  |  |  |
| COc1cc(-c2cnc(N3CCC(NCc4ccc(/C=C/C(=O)NO)cc4)CC3)c(F)c2-c2ccc(C#N)c(F)c2)ccc1O [Example 77, (E)-3-(4-(((1-(4-(4-Cyano-3-fluorophenyl)-3-fluoro-5-(4-hydroxy-3-methoxyphenyl)pyridin-2-yl)piperidin-4-yl)amino)methyl)phenyl)-N-hydroxyacrylamide formate] |  | 320 | 661 | 121 |  |  |  |  |  |  |
| COc1ccc(-c2cnc(N3CCC(Nc4ccc(/C=C/C(=O)NO)cc4)CC3)c(C#N)c2-c2ccc(C#N)c(F)c2)cc1O [Example 82, (E)-3-(4-((1-(3-Cyano-4-(4-cyano-3-fluorophenyl)-5-(3-hydroxy-4-methoxyphenyl)pyridin-2-yl)piperidin-4-yl)amino)phenyl)-N-hydroxyacrylamide formate] |  | 352 | 11.5 | 268 |  |  |  |  |  |  |
| COc1ccc(-c2cnc(N3CCC(CCc4ccc(/C=C/C(=O)NO)cc4)CC3)c(C#N)c2-c2ccc(C#N)c(F)c2)cc1O [Example 89, (E)-3-(4-(2-(1-(3-cyano-4-(4-cyano-3-fluorophenyl)-5-(3-hydroxy-4-methoxyphenyl)pyridin-2-yl)piperidin-4-yl)ethyl)phenyl)-N-hydroxyacrylamide] |  | 390 | > 1000 | 120 |  |  |  |  |  |  |

Now from value to compound:

| IC50 [1] [nM] | IC50 [2, 8] [nM] | IC50 [3, 9] [nM] | IC50 [4, 10] [nM] | IC50 [5] [nM] | IC50 ([2]; Du145 prostate cancer cell proliferation) [nM] | IC50 ([3]; H1417 small cell lung cancer cell proliferation) [nM] | IC50 ([4]; H69 small cell lung cancer cell proliferation) [nM] | IC50 [6] [nM] | IC50 [7] [nM] | Structure (SMILES) |
| --- | --- | --- | --- | --- | --- | --- | --- | --- | --- | --- |
|  | 2630 | 623 | 906 |  |  |  |  |  |  | COc1cc(-c2cnc(N3CCC(NCC4CCN(c5ccc(C(=O)NO)cc5)CC4)CC3)c(C#N)c2-c2ccc(C#N)c(F)c2)ccc1O [Example 91, 4-(4-(1-(3-Cyano-4-(4-cyano-3-fluorophenyl)-5-(4-hydroxy-3-methoxyphenyl)pyridin-2-yl)piperidin-4-yl)amino)methyl) piperidin-1-yl)-N-hydroxybenzamide formate] |
|  | 2840 | 343 | 1280 |  |  |  |  |  |  | COc1cc(-c2cnc(N3CCC(NCCCc4ccc(C(=O)NO)cc4)CC3)c(C#N)c2-c2ccc(C#N)c(F)c2)ccc1O [Example 93, 4-(3-(3-Cyano-4-(4-cyano-3-fluorophenyl)-5-(4-hydroxy-3-methoxyphenyl)pyridin-2-yl)piperidin-4-yl)amino)propyl)-N-hydroxybenzamide formate] |
|  | 21 | 8.93 | 8.76 | 1.06 |  |  |  |  |  | N#Cc1ccc(-c2c(-c3ccc(F)c(O)c3)cnc(N3CCC(NCc4ccc(/C=C/C(=O)NO)cc4)CC3)c2C#N)cc1F [Example 97, (E)-3-(4-((1-(3-Cyano-4-(4-cyano-3-fluorophenyl)-5-(4-fluoro-3-hydroxyphenyl)pyridin-2-yl)piperidin-4-yl)amino)methyl) phenyl)-N-hydroxyacrylamide formate] |
|  | 5190 | 220 | 405 | 44.2 |  |  |  |  |  | COc1ccc(-c2cnc(N3CCC(NCc4ccc(/C=C/C(=O)NO)cc4)CC3)c(C#N)c2-c2ccc(C#N)c(F)c2)c(O)c1O [Example 140, (E)-3-(4-(((1-(3-Cyano-4-(4-cyano-3-fluorophenyl)-5-(2,3-dihydroxy-4-methoxyphenyl)pyridin-2-yl)piperidin-4-yl)amino)methyl)phenyl)-N-hydroxyacrylamide formate] |
|  | 129 | 31 | 95.8 | 1.72 |  |  |  |  |  | Cn1nnc2cc(-c3cnc(N4CCC(NCc5ccc(/C=C/C(=O)NO)cc5)CC4)c(C#N)c3-c3ccc(C#N)c(F)c3)ccc21 [Example 141, (E)-3-(4-(((1-(3-Cyano-4-(4-cyano-3-fluorophenyl)-5-(1-methyl-1H-benzo[d][1,2,3]triazol-5-yl)pyridin-2-yl)piperidin-4-yl)amino)methyl)phenyl)-N-hydroxyacrylamide formate] |
|  |  |  |  | 153 | 658 | 255 | 440 |  |  | COc1ccc(-c2cnc(N3CCC(NCc4ccc(/C=C/C(=O)NO)cc4)CC3)c(C(F)(F)F)c2-c2ccc(C#N)c(F)c2)cc1O [Example 147, (E)-3-(4-(4-(4-Cyano-3-fluorophenyl)-5-(3-hydroxy-4-methoxyphenyl)-3-(trifluoromethyl)pyridin-2-yl)piperidin-4-yl)amino)methyl) phenyl)-N-hydroxyacrylamide formate] |
| 1.68 |  | 0.54 | 14.5 | 0.55 |  |  |  | 12.3 | 53.1 | COc1ccc(-c2cnc(N3CCC(NCc4ccc(/C=C(\F)C(=O)NO)cc4)CC3)c(C#N)c2-c2ccc(C#N)c(F)c2)cc1O [Example 171, (Z)-3-(4-(((1-(3-Cyano-4-(4-cyano-3-fluorophenyl)-5-(3-hydroxy-4-methoxyphenyl)pyridin-2-yl)piperidin-4-yl)amino)methyl)phenyl)-2-fluoro-N-hydroxyacrylamide formate] |
| 38.2 |  | 1.88 | 245 | 0.69 |  |  |  | 497 | 508 | COc1ccc(-c2c(C#N)cc(N3CCC(NCc4ccc(/C=C/C(=O)NO)cc4)CC3)nc2-c2ccc(C#N)c(F)c2)cc1O [Example 176, (E)-3-(4-(((1-(4-cyano-6-(4-cyano-3-fluorophenyl)-5-(3-hydroxy-4-methoxyphenyl)pyridin-2-yl)piperidin-4-yl)amino)methyl)phenyl)-N-hydroxyacrylamide formate] |
| 7.48 |  | 3.59 | 71.8 | 0.49 |  |  |  | 193 | 30.1 | CC(C)(O)Cn1nnc2cc(-c3cnc(N4CCC(NCc5ccc(/C=C/C(=O)NO)cc5)CC4)c(C#N)c3-c3ccc(C#N)c(F)c3)ccc21 [Example 197, (E)-3-(4-(((1-(3-Cyano-4-(4-cyano-3-fluorophenyl)-5-(1-(2-hydroxy-2-methylpropyl)-1H-benzo[d][1,2,3]triazol-5-yl)pyridin-2-yl)piperidin-4-yl)amino)methyl)phenyl)-N-hydroxyacrylamide formate] |
